# Source: patent US9695155B2, “Herbicidal substituted pyrimidinyloxy benzene compounds” (E. I. DU PONT DE NEMOURS AND COMPANY, priority 2013, dated 2017)
# How the values were obtained:
# barnyardgrass [1] = assay: Test A preemergence; type: in vivo, Echinochloa crus-galli
# Method in brief: (§1)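 Scoring: eye-based comparison with untreated controls, 0 for no effect through 100 for complete control, at about day 10. Treatments: directed soil spray preemergence; foliar spray postemergence on 2–10 cm plants at the one- to two-leaf stage. Medium: loam soil with sand.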
# large (Lg) crabgrass [2] = assay: Test A preemergence; type: in vivo, Digitaria sanguinalis
# Method in brief: as §1
# giant foxtail [3] = assay: Test A preemergence; type: in vivo, Setaria faberii
# Method in brief: as §1
# morningglory [4] = assay: Test A preemergence; type: in vivo, Ipomoea spp.
# Method in brief: as §1
# pigweed [5] = assay: Test A preemergence; type: in vivo, Amaranthus retroflexus
# Method in brief: as §1
# velvetleaf [6] = assay: Test A preemergence; type: in vivo, Abutilon theophrasti
# Method in brief: as §1
# wheat [7] = assay: Test A preemergence; type: in vivo, Triticum aestivum
# Method in brief: as §1
# corn [8] = assay: Test A preemergence; type: in vivo, Zea mays
# Method in brief: as §1
# barnyardgrass [9] = assay: Test A postemergence; type: in vivo, Echinochloa crus-galli
# Method in brief: as §1
# large (Lg) crabgrass [10] = assay: Test A postemergence; type: in vivo, Digitaria sanguinalis
# Method in brief: as §1
# giant foxtail [11] = assay: Test A postemergence; type: in vivo, Setaria faberii
# Method in brief: as §1
# morningglory [12] = assay: Test A postemergence; type: in vivo, Ipomoea spp.
# Method in brief: as §1
# pigweed [13] = assay: Test A postemergence; type: in vivo, Amaranthus retroflexus
# Method in brief: as §1
# velvetleaf [14] = assay: Test A postemergence; type: in vivo, Abutilon theophrasti
# Method in brief: as §1
# wheat [15] = assay: Test A postemergence; type: in vivo, Triticum aestivum
# Method in brief: as §1
# corn [16] = assay: Test A postemergence; type: in vivo, Zea mays
# Method in brief: as §1
# rice = assay: Test B flooded paddy test; type: in vivo, Oryza sativa; conditions: Flood, 250 g ai/ha, 0 to 100 scale where 0 is no effect and 100 is complete control
# Method in brief: (§2)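 Plants were grown to the 2-leaf stage, then pots were flooded to 3 cm above the soil and compounds were applied directly into the paddy water. That depth was held throughout, and after 13 to 15 days in the greenhouse injury was rated visually against controls on a 0–100 scale (0 no effect, 100 complete control).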
# sedge, umbrella = assay: Test B flooded paddy test; type: in vivo, Cyperus difformis; conditions: Flood, 250 g ai/ha, 0 to 100 scale where 0 is no effect and 100 is complete control
# Method in brief: as §2
# Heteranthera limosa = assay: Test B flooded paddy test; type: in vivo; conditions: Flood, 250 g ai/ha, 0 to 100 scale where 0 is no effect and 100 is complete control
# Method in brief: as §2
# barnyardgrass [17] = assay: Test B flooded paddy test; type: in vivo, Echinochloa crus-galli; conditions: Flood, 250 g ai/ha, 0 to 100 scale where 0 is no effect and 100 is complete control
# Method in brief: as §2
# [18] = 125 g ai/ha, 0 to 100 scale where 0 is no effect and 100 is complete control
# [19] = 500 g ai/ha, 0 to 100 scale, 0 no effect, 100 complete control, approx. 10 days
# [20] = 500 g ai/ha, 0 to 100 scale, 0 no effect, 100 complete control
structure (smiles),measurement,setting,value
"Clc1cnc(Oc2ccccc2-n2ncc(Br)n2)nc1 [Compound 54, 2-[2-(4-bromo-2H-1,2,3-triazol-2-yl)phenoxy]-5-chloropyrimidine]",pest or weed control at 1000 g/ha,"barnyardgrass [1]; Echinochloa crus-galli, pre-emergence, 240 h, 1000 g ai/ha, 0 to 100 scale, 0 no effect, 100 complete control, read-out: Plant response rating, Barnyardgrass",0%
same,pest or weed control at 1000 g/ha,"large (Lg) crabgrass [2]; Digitaria sanguinalis, pre-emergence, 240 h, 1000 g ai/ha, 0 to 100 scale, 0 no effect, 100 complete control, read-out: Plant response rating, Crabgrass, Large",100%
same,pest or weed control at 1000 g/ha,"giant foxtail [3]; Setaria faberi, pre-emergence, 240 h, 1000 g ai/ha, 0 to 100 scale, 0 no effect, 100 complete control, approx. 10 days, read-out: Foxtail, Giant plant response rating",100%
same,pest or weed control at 1000 g/ha,"morningglory [4]; Ipomoea, pre-emergence, 240 h, 1000 g ai/ha, 0 to 100 scale, 0 no effect, 100 complete control, approx. 10 days, read-out: Morningglory plant response rating",70%
same,pest or weed control at 1000 g/ha,"pigweed [5]; Amaranthus retroflexus, pre-emergence, 240 h, 1000 g ai/ha, 0 to 100 scale, 0 no effect, 100 complete control, approx. 10 days, read-out: Pigweed plant response rating",100%
same,pest or weed control at 1000 g/ha,"velvetleaf [6]; Abutilon theophrasti, pre-emergence, 240 h, 1000 g ai/ha, 0 to 100 scale, 0 no effect, 100 complete control, approx. 10 days, read-out: Velvetleaf plant response rating",100%
same,plant injury at 1000 g/ha,"wheat [7]; Triticum aestivum, pre-emergence, 240 h, 1000 g ai/ha, 0 to 100 scale, 0 no effect, 100 complete control, approx. 10 days, read-out: Wheat plant response rating",0%
same,"Corn plant response rating (crop injury, 0 = no effect, 100 = complete kill) at 1000 g/ha","corn [8]; Zea mays, pre-emergence, 240 h, 1000 g ai/ha, 0 to 100 scale, 0 no effect, 100 complete control",20%
same,pest or weed control at 1000 g/ha,"barnyardgrass [9]; Echinochloa crus-galli, post-emergence, 240 h, 1000 g ai/ha, 0 to 100 scale, 0 no effect, 100 complete control, read-out: Plant response rating Barnyardgrass",30%
same,pest or weed control at 1000 g/ha,"large (Lg) crabgrass [10]; Digitaria sanguinalis, post-emergence, 240 h, 1000 g ai/ha, 0 to 100 scale, 0 no effect, 100 complete control, read-out: Plant response rating Crabgrass, Large",100%
same,pest or weed control at 1000 g/ha,"giant foxtail [11]; Setaria faberi, post-emergence, 240 h, 1000 g ai/ha, 0 to 100 scale, 0 no effect, 100 complete control, read-out: Plant response rating Foxtail, Giant",70%
same,pest or weed control at 1000 g/ha,"morningglory [12]; Ipomoea, post-emergence, 240 h, 1000 g ai/ha, 0 to 100 scale, 0 no effect, 100 complete control, read-out: Plant response rating Morningglory",100%
same,pest or weed control at 1000 g/ha,"pigweed [13]; Amaranthus retroflexus, post-emergence, 240 h, 1000 g ai/ha, 0 to 100 scale, 0 no effect, 100 complete control, read-out: Plant response rating Pigweed",100%
same,pest or weed control at 1000 g/ha,"velvetleaf [14]; Abutilon theophrasti, post-emergence, 240 h, 1000 g ai/ha, 0 to 100 scale, 0 no effect, 100 complete control, read-out: Plant response rating Velvetleaf",80%
same,plant injury at 1000 g/ha,"wheat [15]; Triticum aestivum, post-emergence, 240 h, 1000 g ai/ha, 0 to 100 scale, 0 no effect, 100 complete control, read-out: Plant response rating Wheat",0%
same,plant injury at 1000 g/ha,"corn [16]; Zea mays, post-emergence, 240 h, 1000 g ai/ha, 0 to 100 scale, 0 no effect, 100 complete control, read-out: Plant response rating Corn",50%
same,plant injury at 250 g/ha,"rice; Oryza sativa, read-out: Plant response rating, Rice",0%
same,pest or weed control at 250 g/ha,"sedge, umbrella; Cyperus difformis, read-out: Plant response rating, Sedge, Umbrella",0%
same,pest or weed control at 250 g/ha,"Heteranthera limosa; Heteranthera limosa, read-out: Plant response rating, Ducksalad",0%
same,pest or weed control at 250 g/ha,"barnyardgrass [17]; Echinochloa crus-galli, read-out: Plant response rating, Barnyardgrass",0%
O=[N+]([O-])c1cccc(Oc2ncc(Cl)cn2)c1-n1cc(Br)cn1 [Compound 63],"Plant response rating, Barnyardgrass",barnyardgrass [1]; [18],0
same,Barnyardgrass plant response rating,barnyardgrass [1]; [19],70
same,"Plant response rating, Crabgrass, Large",large (Lg) crabgrass [2]; [18],80
same,"Crabgrass, Large plant response rating",large (Lg) crabgrass [2]; [19],100
same,"Plant response rating, Foxtail, Giant",giant foxtail [3]; [18],20
same,"Foxtail, Giant plant response rating",giant foxtail [3]; [19],100
same,"Plant response rating, Morningglory",morningglory [4]; [18],0
same,Morningglory plant response rating,morningglory [4]; [19],0
same,"Plant response rating, Pigweed",pigweed [5]; [18],90
same,Pigweed plant response rating,pigweed [5]; [19],100
same,"Plant response rating, Velvetleaf",velvetleaf [6]; [18],0
same,Velvetleaf plant response rating,velvetleaf [6]; [19],20
same,"Plant response rating, Wheat",wheat [7]; [18],0
same,Wheat plant response rating,wheat [7]; [19],0
same,"Plant response rating, Corn",corn [8]; [18],0
same,Corn plant response rating,corn [8]; [19],0
same,"Plant response rating, Barnyardgrass",barnyardgrass [9]; [18],30
same,"Plant response rating, Barnyardgrass",barnyardgrass [9]; [20],70
same,"Plant response rating, Crabgrass, Large",large (Lg) crabgrass [10]; [18],30
same,"Plant response rating, Crabgrass, Large",large (Lg) crabgrass [10]; [20],90
same,"Plant response rating, Foxtail, Giant",giant foxtail [11]; [18],20
same,"Plant response rating, Foxtail, Giant",giant foxtail [11]; [20],80
same,"Plant response rating, Morningglory",morningglory [12]; [18],30
same,"Plant response rating, Morningglory",morningglory [12]; [20],80
same,"Plant response rating, Pigweed",pigweed [13]; [18],70
same,"Plant response rating, Pigweed",pigweed [13]; [20],100
same,"Plant response rating, Velvetleaf",velvetleaf [14]; [18],60
same,"Plant response rating, Velvetleaf",velvetleaf [14]; [20],100
same,"Plant response rating, Wheat",wheat [15]; [18],0
same,"Plant response rating, Wheat",wheat [15]; [20],10
same,"Plant response rating, Corn",corn [16]; [18],0
same,"Plant response rating, Corn",corn [16]; [20],30
same,"Plant response rating, Rice",rice,0
same,"Plant response rating, Sedge, Umbrella","sedge, umbrella",0
same,"Plant response rating, Ducksalad",Heteranthera limosa,0
same,"Plant response rating, Barnyardgrass",barnyardgrass [17],0
